Key:
PC-12 cells [1] = assay: Western blot of stress/apoptosis markers in PC-12 cells under hypoxia/reoxygenation; assay type: cell-based
Experimental: For the Western blot assays, animals were deeply anesthetized by isoflurane (Phoenix) and decapitated, and then brains were rapidly removed. After sacrifice, the while the brain was on ice, the left hemisphere and the right hemisphere (identical parts) were quickly dissected on dry ice and homogenized in Lysis buffer consisting of 50 mM Tris-HCl, 150 mM NaCl, 2 mM EDTA, pH 8.0, 1% Triton-X-100, 1:100 dilution of mammalian protease inhibitors (Sigma-Aldrich, MO, USA) and protease inhibitor for immunoblotting. Protein concentrations of each sample solution were determined with a Bradford protein assay, and samples were stored at −80° C. until use. Protein samples were separated by 12% sodium dodecyl sulfate-polyacrylamide gel electrophoresis and transferred onto nitrocellulose membranes. Western blot was performed using the following primary antibodies overnight: abcam: GRP 78, HSP70, HSP 27, activating transcription factor 4 (ATF4), and X-box-binding protein 1 (XBP-1) (1:500); Cell Signaling: GAPDH (1:3,000), Bax, BCL2 (1:1,000), AKT, phosphorylated AKT (p-AKT); Santa Cruz: CHOP/GADD153); Imgenex: ATF6 (1:1,500). The membranes were washed three times with Tris-buffered saline containing 0.1% Tween-20 (TBS-T) and incubated with secondary antibodies for 1 hour at room temperature. Secondary antibodies used were goat IRDye 800-conjugated anti-rabbit (1:15,000) and IRDye 680 conjugated anti-mouse (1:15,000) antibodies (LI-COR Biosciences, Lincoln, Nebr., USA). Fluorescent signals were detected with a LI-COR Odyssey Fc system and the images were quantified with the provided either Image Studio 2.0 software or image J software.
(§1) In another set of experiments, the effect of carbamathione on cell viability and expression of various biomarkers in PCT-12 cells exposed to hypoxia/reoxygenation was evaluated. Referring to FIG. 9, PC-12 cells were exposed to hypoxia and reoxygenation in the presence or in the absence of 5-100 μM carbamathione. […] Referring to FIGS. 13 and 14, GRP 78, CHOP, Caspase-12, and cleaved Caspase-12 expression induced by hypoxia-reoxygenation were each inhibited by carbamathione.

[2] = test system: bilateral carotid artery occlusion (BCAO) mice; assay: Western blot of brain tissue in BCAO stroke model; assay type: in vivo
Experimental: (§2) For the bilateral carotid artery occlusion assay (BCAO) experiments, male Swiss Webster mice (20 weeks of age) were obtained from Charles River laboratory. The mice were allowed access to water only and kept fasting overnight before surgery. Mice were anesthetized with ketamine (100 mg/kg, i.p.) plus xylazine (10 mg/kg, i.p.). For induction of anesthesia, mice were exposed to a gaseous mixture consisting of 30% oxygen, 70% N2O and 0.5% isoflurane using a vaporizer. For maintenance of anesthesia, isoflurane concentration was used to 0.5%. Mice were breathing spontaneously via breathing mask throughout the surgical procedure. A rectal temperature probe was inserted. During surgery, mice were resting on a thermostat-controlled heating pad, ensuring a constant core temperature of 37.0±0.5° C.
While anesthesia was maintained as described above, each mouse was placed on its back, and its tail and paws were fixed to the heating pad using adhesive tape. A sagittal ventral midline incision (˜1 cm length) was performed. Both common carotid arteries (CCAs) were isolated, freed of nerve fibers, and occluded using non-traumatic aneurysm clips. Complete interruption of blood flow was confirmed under an operating microscope. After 30 min of ischemia, the aneurysm clips were removed from both CCAs. Restoration of blood flow (reoxygenation) was observed directly under the microscope. Sham-operated controls were subjected to the same surgical procedures except that CCAs were not occluded. The body temperature was monitored and maintained at 37° C.±0.5° C. during the immediate postoperative period until the animals recovered fully from anesthesia.
Animals were randomly assigned for sham, control, and experimental groups. Thereafter, in experimental group (carbamathione treated group, N=9), carbamathione (14 mg/kg in 0.3 mL saline 0.9%) was injected subcutaneously 30 min after occlusion and continued daily until the animal was sacrificed. In control groups (vehicle-treated group, N=9), vehicle (0.3 ml saline 0.9%) was injected subcutaneously 30 min after occlusion. Sham-operated group (N=6) received the same surgical procedure without occlusion of common carotid artery. After surgery, animals were allowed to recover from the anesthesia, and given food and water ad libitum. The animals were daily examined for body temperature and weight, and those who had body temperature more than 39° C. after 24 hour were excluded from the experiment.
For the Western blot assays, animals were deeply anesthetized by isoflurane (Phoenix) and decapitated, and then brains were rapidly removed. […] Protein concentrations of each sample solution were determined with a Bradford protein assay, and samples were stored at −80° C. until use. […]

[3] = test system: bilateral carotid artery occlusion (BCAO) mice; assay: Corner test in BCAO stroke model; assay type: in vivo; conditions: 14 mg/kg s.c. daily; up to 4 days after BCAO; untreated BCAO ~90% to one side; FIG. 21
Experimental: as §2, with “During surgery, mice were resting on a thermostat-controlled heating pad, ensuring a constant core temperature of 37.0±0.5° C.” left out
While anesthesia was maintained as described above, each mouse was placed on its back, and its tail and paws were fixed to the heating pad using adhesive tape. […] The body temperature was monitored and maintained at 37° C.±0.5° C. during the immediate postoperative period until the animals recovered fully from anesthesia.
The Corner test, which determines an animal's asymmetric direction of turning when encountering a corner, is used as an indicator of brain injury. […] Each mouse took part in ten trials, after which we calculated the percentage of turns to each side, recording only those turns involving full rearing along one of the boards. […]

[4] = test system: bilateral carotid artery occlusion (BCAO) mice; assay: Locomotor activity on force-plate actometer in BCAO stroke model; assay type: in vivo; conditions: 14 mg/kg s.c. daily; 4 days after BCAO; FIG. 22
Experimental: as §2
While anesthesia was maintained as described above, each mouse was placed on its back, and its tail and paws were fixed to the heating pad using adhesive tape. A sagittal ventral midline incision (˜1 cm length) was performed. Both common carotid arteries (CCAs) were isolated, freed of nerve fibers, and occluded using non-traumatic aneurysm clips. Complete interruption of blood flow was confirmed under an operating microscope. […] The body temperature was monitored and maintained at 37° C.±0.5° C. during the immediate postoperative period until the animals recovered fully from anesthesia. […]

PC-12 cells [5] = assay: ATP assay of cell viability, PC-12 cells under hypoxia/reoxygenation; assay type: cell-based; conditions: 5-100 μM carbamathione; hypoxia and reoxygenation; without treatment about 47% of control; FIG. 9
Experimental: as §1

[6] = test system: bilateral carotid artery occlusion (BCAO) mice; assay: Brain infarct by TTC staining in BCAO stroke model; assay type: in vivo; conditions: 14 mg/kg subcutaneously 30 min after occlusion
Experimental: as §2
While anesthesia was maintained as described above, each mouse was placed on its back, and its tail and paws were fixed to the heating pad using adhesive tape. A sagittal ventral midline incision (˜1 cm length) was performed. […] The body temperature was monitored and maintained at 37° C.±0.5° C. during the immediate postoperative period until the animals recovered fully from anesthesia. […]
Mice were euthanized 4 days after surgery. […] To assess lesion volume, TTC-stained slices (2, 4, 6, 8, and 10 mm from the frontal pole) were scanned using a scanner and analyzed by Image-J analysis software. […]

PC-12 cells [7] = conditions: 10 mM glutamate for 24 hours
Experimental: PC-12 cells (purchased from ATCC, Manassas, Va., USA) were cultured in a petri dish for one week prior to use. PC-12 cells were maintained at 37° C./5% CO2 in an incubator, and fed every other day using F12-K medium supplemented with 5% (v/v) fetal bovine serum (FBS), 10% (v/v) heat-inactivated horse serum (HS) and 1% (v/v) penicillin-streptomycin solution. Experiments were performed on undifferentiated cells plated in 96-well plates at a density of approximately 5×10^4 cells/ml for the ATP assay. On first day of use, cells were harvested by first adding 2 mL trypsin and incubated for 15 minutes. 2 mL fresh medium was then used as a wash and cells were spun, and re-suspended. Cell density was determined by cell counting using a hemocytometer and a tissue culture microscope. After cell density was determined, 96-well plates and 6-well plates were plated with 2.5×10^4 cells per well and 5×10^5 cells per well for the adenosine 5′-triphosphate (ATP) assay and Western blot analysis, respectively.
Cell cultures were preincubated with 0.5 μM to 500 μM concentration of carbamathione for one hour. […] For the ATP assay, ATP solution was added to each well, and cells were incubated for 10 min after which time the amount of ATP was quantified through a luciferase reaction. The luminescence intensity was determined using a luminometer with lysates in a standard opaque-walled multi-well plate. […]

[8] = after 4 days, compared to vehicle treated group, FIG. 23
[9] = day 4 post BCAO, compared with vehicle treated group, FIG. 24

CCN(CC)C(=O)SC[C@H](NC(=O)CC[C@H](N)C(=O)O)C(=O)NCC(=O)O [carbamathione, S—(N,N-diethylcarbamoyl)glutathione]
CHOP expression induced by hypoxia-reoxygenation (PC-12 cells [1]; FIG. 13): inhibited | GRP 78 expression induced by hypoxia-reoxygenation (PC-12 cells [1]; FIG. 13): inhibited | Caspase-12 expression induced by hypoxia-reoxygenation (PC-12 cells [1]; FIG. 14): inhibited | cleaved Caspase-12 expression induced by hypoxia-reoxygenation (PC-12 cells [1]; FIG. 14): inhibited | ATF4 expression induced by hypoxia-reoxygenation (PC-12 cells [1]; FIG. 15): inhibited | ATF6 expression induced by hypoxia-reoxygenation (PC-12 cells [1]; FIG. 16): inhibited | XBP1 expression induced by hypoxia-reoxygenation (PC-12 cells [1]; FIG. 17): inhibited | Bax expression (upregulation induced by hypoxia/reoxygenation) (PC-12 cells [1]; FIG. 18): decreased the upregulation | Bcl2 expression (downregulation induced by hypoxia/reoxygenation) (PC-12 cells [1]; FIG. 18): increased the downregulation | decrease in the Bcl2:Bax ratio induced by hypoxia/reoxygenation (PC-12 cells [1]; FIG. 18): inhibited | cleaved Caspase-3 expression (upregulation induced by hypoxia/reoxygenation) (PC-12 cells [1]; FIG. 19): decreased the upregulation | AKT expression (PC-12 cells [1]; hypoxia-reoxygenation, FIG. 12): no changes | Hsp 27 expression (PC-12 cells [1]; hypoxia-reoxygenation, compared to hypoxia-reoxygenation alone, FIG. 10): greater over-expression | Hsp 70 expression (PC-12 cells [1]; hypoxia-reoxygenation, compared to hypoxia-reoxygenation alone, FIG. 11): greater over-expression | P-AKT expression (PC-12 cells [1]; hypoxia-reoxygenation, compared to hypoxia-reoxygenation alone, FIG. 12): up-regulated | CHOP expression in the brains [2, 8]: decreased dramatically | GRP 78 expression in the brains [2, 8]: decreased dramatically | Bax expression in the brains [2, 9]: decreased expression | Bcl2 expression in the brains [2, 9]: significantly increased expression | asymmetric turning in Corner test [3]: not significant differently from that seen in the sham-operated mice | locomotor activity [4]: statistically significantly different than BCAO with vehicle group | cell viability (ATP levels) (PC-12 cells [5]): dramatically increased the cell viability | infarct size (TTC staining) ([6]; daily, 4 days after surgery, 2, 4, 6, 8, 10 mm from frontal pole, FIG. 20): noticeably reduced | volume of the lesion ([6]; sections 2, 4, 6, 8 and 10 mm, 30 min transient BCAO, FIG. 20c): markedly reduced

N[C@@H](CCC(=O)O)C(=O)O [glutamate]
survival of PC-12 cells (ATP assay) (PC-12 cells [7]): about 45%

Reference: patent US11576945B2, “Treatment for ischemic stroke” (CHS Pharma Inc., priority 2018, dated 2023)
